Structures are written as SMILES.

The nature of this data set: in vitro. The note with it: human, hela cells, % viability.

In the case of `O=C(c1sc2ccccc2c1Cl)n1cnc2ccccc21` [CBK262216], the viability at 28.5 h, 10 µM turned out to be 101%. Take `O=C(COc1ccc(Cl)cc1)NNC(=O)c1cccnc1` [CBK261044]: the viability at 28.5 h, 10 µM amounted to 97.4%.

Consider `COc1ccccc1NC(=O)C1=C(C)NC(SCC(=O)Nc2ccc(C(=O)O)cc2)=C(C#N)C1c1cccs1` (centres unmarked) [CBK296139], for which the viability at 28.5 h, 10 µM came out at 102%.

On to `CN(CC(=O)N1CCC[C@@H]2[C@H]1C/C=C/Cc1ccccc1OCC(=O)N2C)Cc1ccccn1` [CBK292078], for which the viability at 28.5 h, 10 µM came out at 91.5%. The value for `COc1cc(/C=N/NC(=O)CSc2n[nH]c(=O)[nH]c2=O)ccc1O` [CBK263513] was 88.7%; that for `Cc1noc(C)c1S(=O)(=O)Nc1cccc(C(=O)N2CCN(C)CC2)c1` [CBK038972] was 101%. The value for `Cc1ccc(CNCc2cc3c(C)nn(-c4ccccc4)c3[nH]c2=O)o1` [CBK282896] was 90.8%; that for `CC1Oc2ccc(S(=O)(=O)Nc3ccc(CCC(=O)O)cc3)cc2NC1=O` (centres unmarked) [CBK299769] was 92.3%; that for `O=[N+]([O-])c1ccccc1S(=O)(=O)Nc1ccc(S(=O)(=O)Nc2ccccc2)cc1` [CBK264796] was 106%. The value for `CCNc1nc(-c2ccc(S(C)(=O)=O)cc2)cn2ccnc12` [CBK066452] was 87.1%; that for `COc1ccc2sc(Nc3ccc(F)cc3)nc2c1` [CBK287641] was 95.3%. As for `O=C(NCC(=O)N1CCc2ccccc2C1)C1CCCCC1` [CBK306049], the viability at 28.5 h, 10 µM was 107%.

As to `Cc1nc(S(=O)(=O)N2CCC(C(=O)N3CCCCCC3)CC2)cn1C` [CBK305765], the viability at 28.5 h, 10 µM was 99.3%.

On to `COc1cc(NC(=O)c2nn3c(c2Br)NC(c2cccs2)CC3C(F)(F)F)c(OC)cc1Cl` (centres unmarked) [CBK263573], for which the viability at 28.5 h, 10 µM came to 93.1%. The value for `CCn1c(C)cc(C(=O)N2CCN(c3nccc(OC)n3)CC2)c1C` [CBK305791] was 95.5%; that for `CCC(CC)c1cc([C@H]2CN3CC[C@H]2C[C@@H]3CO)nc(-c2ccncc2)n1` [CBK289118] was 100%; that for `Cc1cc(O)nc(C(C)N2CCN(Cc3noc(C(C)(C)C)n3)CC2)n1` (centres unmarked) [CBK305249] was 95.4%. Regarding `O=C(Nc1nnc(C2=COCCO2)o1)c1cccc(F)c1` [CBK287408], the viability at 28.5 h, 10 µM came to 85.3%. Take `O=C(NC1CCN(c2ncccn2)CC1)c1ccc[nH]c1=S` [CBK241695]: the viability at 28.5 h, 10 µM came to 83.9%. The value for `COCc1cccc(-c2ncc(OCc3ccccn3)nc2N)c1` [CBK145108] was 93.9%; that for `COc1ccc(Nc2nc(-c3cccnc3)cs2)c(OC)c1` [CBK126814] was 92.6%; that for `Cc1nonc1CNC(=O)N1CCOCC(C2CCC2)C1` (centres unmarked) [CBK304086] was 97.4%. As to `CC(=O)N(C)c1nc(-c2cccc(N(C)C)c2)ccc1C(=O)NCCc1ccc(S(N)(=O)=O)cc1` [CBK076578], the viability at 28.5 h, 10 µM is 88.8%. In the case of `CCCNCC(=O)N1CN(C(=O)c2ccc(C)cc2)C(C)(C)C1` [CBK089572C], the viability at 28.5 h, 10 µM is 111%. Turning to `O=C(C1=C(O)C(=O)N(Cc2cccnc2)C1c1ccncc1)c1ccc(Cl)cc1` (centres unmarked) [CBK264513], the viability at 28.5 h, 10 µM was 94.8%. Regarding `COc1ccccc1C(NC(=O)C1CCN(CCc2c[nH]c3ccccc23)CC1)c1ccccn1` (centres unmarked) [CBK147923], the viability at 28.5 h, 10 µM amounted to 87.8%. On to `O=C(CCN1CCN(Cc2ccccc2)CC1)Nc1ccc(F)cc1` [CBK264261], for which the viability at 28.5 h, 10 µM is 77%.

For `O=C(COc1ccc2ccccc2c1Br)Nc1ccc(S(=O)(=O)N2CCCC2)cc1` [CBK264135], the viability at 28.5 h, 10 µM was determined as 99.3%. For `COc1ccnc(N2CCN(C(=O)CCc3ccsc3)CC2)n1` [CBK306350], the viability at 28.5 h, 10 µM came out at 90.5%. Regarding `O=C(O)CCN1CCN(S(=O)(=O)c2ccc3ccccc3c2)CC1` [CBK269255], the viability at 28.5 h, 10 µM was 88.4%. As to `COc1cccc2ncn(CCc3csc(N)n3)c(=O)c12` [CBK307679], the viability at 28.5 h, 10 µM was determined as 81.9%. On to `CCOc1cc(/C=C2\SC(=N)NC2=O)cc(Cl)c1O` [CBK262955], for which the viability at 28.5 h, 10 µM was found to be 84.4%. For the compound `Cc1cccc(CCNC(=O)N2CCC(Cc3cnn(C)c3)C2)c1` (centres unmarked) [CBK305137], the viability at 28.5 h, 10 µM was 110%. The value for `Cc1cccc(C)c1NC(=O)CN1CCCN(c2nccc(OCC3COc4ccccc4O3)n2)CC1` (centres unmarked) [CBK083974] was 102%. Turning to `COc1c(C)cc(-c2nc(C)nc(C)c2C)cc1C` [CBK307506], the viability at 28.5 h, 10 µM worked out at 96.7%. Turning to `O=C(CSc1nc2ccccc2[nH]1)Nc1cccc(NC(=O)C23CC4CC(CC(C4)C2)C3)c1` [CBK265702], the viability at 28.5 h, 10 µM is 89.8%.

As to `O=C(C1C2CCCCC21)N1CCC(Oc2cccc(F)c2)CC1` (centres unmarked) [CBK282216], the viability at 28.5 h, 10 µM came to 106%.

Regarding `Cc1ccc(-n2c3nc(=O)[nH]c(=O)c-3cc3c(Cl)cccc32)c(C)c1` [CBK287965], the viability at 28.5 h, 10 µM worked out at 83.3%.

As to `CSc1ccc(SC/C(N)=N/O)cc1` [CBK025411C], the viability at 28.5 h, 10 µM was 96.1%. Regarding `Cc1ccc2cc(CN(CC(C)C)S(C)(=O)=O)c(O)nc2c1` [CBK269593], the viability at 28.5 h, 10 µM was 101%. With `N#CCCCN1CCC(Oc2nccnc2OCc2ccc(Cl)cc2Cl)CC1` [CBK161568], the viability at 28.5 h, 10 µM was 94.4%. The value for `CC(C)(C)c1ccc(-c2nc(O)c(CC(=O)O)s2)cc1` [CBK067734] was 99.6%; that for `Cc1cc(C(=O)CN(C)S(=O)(=O)c2ccc(Cl)c(Cl)c2)c(C)n1C` [CBK295661] was 102%; that for `O=C(NCc1ccc(Cl)cc1)c1c(O)c2cc(NS(=O)(=O)c3ccccc3)ccc2[nH]c1=O` [CBK017589] was 94.4%.

For `CCOC(=O)c1cnc(SCC(=O)N2CCN(c3ccccc3)CC2)nc1N` [CBK269159], the viability at 28.5 h, 10 µM was 90.5%. The value for `COc1ccc(CNC(=O)N2CCN(c3ccccc3OC)CC2)cc1OC` [CBK155609] was 89.2%; that for `COCc1[nH]nc(O)c1Cc1c(Cl)cccc1Cl` [CBK105305] was 91%. The value for `Cc1ccc(-n2ncc3c(Nc4c(C)n(C)n(-c5ccccc5)c4=O)ncnc32)c(C)c1` [CBK294449] was 82.6%; that for `NS(=O)(=O)c1ccc(CNC(=O)c2cc(-c3cccnc3)nc3ccc(Cl)cc23)cc1` [CBK267727] was 83.8%. On to `COc1ccc(CNC(=O)CN2CCCC(Cn3cncn3)C2)cc1` (centres unmarked) [CBK305339], for which the viability at 28.5 h, 10 µM was 88.9%. For `Cc1cc(C)n(C(C)CNC(=O)C(C)n2ccnc2)n1` (centres unmarked) [CBK282049], the viability at 28.5 h, 10 µM was 109%.

Consider `Cc1cc(SCC(C)C)n2ncnc2n1` [CBK261808], for which the viability at 28.5 h, 10 µM stood at 112%. As for `CC(=O)Nc1cccc(NCc2csc(C3CCCC3)n2)c1` [CBK304874], the viability at 28.5 h, 10 µM turned out to be 110%. The value for `O=C1CN(S(=O)(=O)c2ccc(F)cc2Cl)CCN1` [CBK051081] was 109%. The value for `CC(=O)N1CCc2nc(C)nc(NCCn3cccc3)c2CC1` [CBK307130] was 83.7%. With `COc1ccc(C(=O)N2Cc3ccccc3C2)c(OC)n1` [CBK200317], the viability at 28.5 h, 10 µM turned out to be 103%. Take `CC1CCN(S(=O)(=O)N2CCNCC2)CC1` [CBK269836C]: the viability at 28.5 h, 10 µM was determined as 91.5%. In the case of `COc1ccc(-c2ocnc2C(=O)NCCc2ccccc2F)cc1` [CBK283941], the viability at 28.5 h, 10 µM was 90%. The value for `O=S(=O)(NCCN1CCOCC1)c1cc(Cl)ccc1Cl` [CBK261757] was 85.1%; that for `O=C(O)C(Cc1ccccc1)Nc1ncnc2sc3c(c12)CCC3` (centres unmarked) [CBK265266] was 90.2%; that for `CCOC(=O)c1ccc(-c2ccc(/C=C/c3nn4cnnc4c(O)c3[N+](=O)[O-])o2)cc1` [CBK268409] was 107%.

For the compound `O=C(c1cccc(F)c1)N1CCC(c2n[nH]c3ncccc23)CC1` [CBK284907], the viability at 28.5 h, 10 µM amounted to 109%. On to `Cc1onc(-c2ccc(Cl)cc2)c1C(=O)N1CCN(C2CCN(C)CC2)CC1` [CBK149087], for which the viability at 28.5 h, 10 µM was found to be 97.1%.

In the case of `N#Cc1ccc(NC(=O)NCC2(N3CCOCC3)CCSC2)cc1` (centres unmarked) [CBK304546], the viability at 28.5 h, 10 µM came out at 89.5%. For the compound `Cc1cc(OCc2nc(-c3ccc(NC(=O)c4ccc5c(c4)OCO5)cc3)no2)ccc1Cl` [CBK266673], the viability at 28.5 h, 10 µM turned out to be 95.7%. As for `Cc1nn2c(C)c(C(=O)Nc3ccccc3)nnc2c1-c1ccccc1` [CBK270198], the viability at 28.5 h, 10 µM is 85.6%.

As to `O=C(c1ccccn1)N1CCN(CCc2ccccc2)CC1` [CBK200201], the viability at 28.5 h, 10 µM was determined as 99.1%. Consider `CC(C)[C@H](NC(=O)C1CC(=O)N(c2ccc(F)cc2)C1)C(=O)N1CCCC1C(=O)O` (some centres unmarked) [CBK286723], for which the viability at 28.5 h, 10 µM stood at 95%. With `O=C(c1ccncc1)N1C2CCC1CC(c1ccc(F)cc1)C2` (centres unmarked) [CBK283763], the viability at 28.5 h, 10 µM was 94.3%. Take `COc1ccc(CN2CCCc3ccccc32)cc1` [CBK126458]: the viability at 28.5 h, 10 µM came out at 95.6%.

With `N=C1NC(=O)/C(=C/c2c(OS(=O)(=O)c3ccc(Cl)cc3)ccc3ccccc23)S1` [CBK265311], the viability at 28.5 h, 10 µM came out at 89.6%. Consider `CC(=O)Oc1ccc2c(=O)cc(N(C)C)oc2c1C` [CBK016581], for which the viability at 28.5 h, 10 µM is 60.5%. As to `CN1CCC(N(C)C(=O)c2ccc(-c3ccccc3CO)cc2)C1` (centres unmarked) [CBK307432], the viability at 28.5 h, 10 µM was 103%.

Regarding `COc1ccccc1N1CCN(c2c(C)c(C)nc3cc(-c4nccn4C)nn23)CC1` [CBK286182], the viability at 28.5 h, 10 µM came out at 87.5%. As to `CC1=C(C#N)c2nc(N)c(C#N)c(C)c2/C1=C\c1ccc(-c2ccc(C(=O)O)cc2)o1` [CBK263415], the viability at 28.5 h, 10 µM worked out at 105%. Take `CCC1CCCCN1C(=O)c1cncc(Br)c1` (centres unmarked) [CBK076699]: the viability at 28.5 h, 10 µM came to 107%.

`Cc1cc(C)c2nc(O)nc(O)c2c1` [CBK017986]: the viability at 28.5 h, 10 µM was found to be 94.4%. For `CCC1CCCCN1C(=O)c1sc2ncccc2c1N` (centres unmarked) [CBK081410], the viability at 28.5 h, 10 µM was found to be 112%. The value for `C[C@@H]1CN(C(=O)c2cncn2C)C[C@H](C)O1` [CBK200370] was 90.3%. Turning to `CC(NC(=O)Cn1ccnc1-c1ccccc1)c1ccccn1` (centres unmarked) [CBK281885], the viability at 28.5 h, 10 µM came out at 103%.

Values taken from article PMC12040169 (PLOS Biology, 2025).
